Laboratory results as given in PubChem BioAssay (NCI).
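Five concentrations, 48 hours, 96-well plates. TGI marks complete inhibition of growth.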

Columns and labels:
Test in all cases: growth of human tumour cells (NCI), 48 h
HL-60(TB) leukemia = system: HL-60(TB) leukemia
MOLT-4 leukemia = system: MOLT-4 leukemia
SNB-19 CNS = system: SNB-19 CNS
HOP-92 NSCLC = system: HOP-92 NSCLC
COLO 205 colon = system: COLO 205 colon
A549 NSCLC = system: A549 NSCLC
OVCAR-8 ovarian = system: OVCAR-8 ovarian
RPMI-8226 leukemia = system: RPMI-8226 leukemia
T-47D breast = system: T-47D breast
SK-MEL-28 melanoma = system: SK-MEL-28 melanoma
HS 578T breast = system: HS 578T breast
K-562 leukemia = system: K-562 leukemia
SN12C renal = system: SN12C renal
BT-549 breast = system: BT-549 breast
NCI-H460 lung = system: NCI-H460 lung
OVCAR-3 ovarian = system: OVCAR-3 ovarian
TK-10 renal = system: TK-10 renal
SK-MEL-2 melanoma = system: SK-MEL-2 melanoma
UACC-62 melanoma = system: UACC-62 melanoma
A498 renal = system: A498 renal
SR leukemia = system: SR leukemia
MDA-MB-231 breast = system: MDA-MB-231 breast
UACC-257 melanoma = system: UACC-257 melanoma
MALME-3M melanoma = system: MALME-3M melanoma
LOX IMVI melanoma = system: LOX IMVI melanoma
NCI-H23 lung = system: NCI-H23 lung
IGROV1 ovarian = system: IGROV1 ovarian
HT29 colon = system: HT29 colon
NCI/ADR-RES ovarian = system: NCI/ADR-RES ovarian
UO-31 renal = system: UO-31 renal
OVCAR-5 ovarian = system: OVCAR-5 ovarian
OVCAR-4 ovarian = system: OVCAR-4 ovarian
DU-145 prostate = system: DU-145 prostate
KM12 colon = system: KM12 colon
M14 melanoma = system: M14 melanoma
EKVX NSCLC = system: EKVX NSCLC
HCC-2998 colon = system: HCC-2998 colon
CAKI-1 renal = system: CAKI-1 renal
NCI-H522 lung = system: NCI-H522 lung
SW-620 colon = system: SW-620 colon
CCRF-CEM leukemia = system: CCRF-CEM leukemia
MDA-MB-435 = system: MDA-MB-435
PC-3 prostate = system: PC-3 prostate
MDA-N = system: MDA-N
SF-268 CNS = system: SF-268 CNS
SK-MEL-5 melanoma = system: SK-MEL-5 melanoma
HCT-15 colon = system: HCT-15 colon
SF-295 CNS = system: SF-295 CNS
HOP-62 NSCLC = system: HOP-62 NSCLC
ACHN renal = system: ACHN renal
U251 CNS = system: U251 CNS
SK-OV-3 ovarian = system: SK-OV-3 ovarian
MCF7 breast = system: MCF7 breast
SNB-75 CNS = system: SNB-75 CNS
786-0 renal = system: 786-0 renal
HCT-116 colon = system: HCT-116 colon
SF-539 CNS = system: SF-539 CNS
RXF 393 renal = system: RXF 393 renal
NCI-H226 lung = system: NCI-H226 lung

Cc1cc(C)nc(NS(=O)(=O)c2ccc(Nc3c4ccccc4nc4c(C(=O)NCCCN(CCO)CCO)cccc34)cc2)n1
TGI (HL-60(TB) leukemia): 38.6 µM
TGI (MOLT-4 leukemia): > 100 µM
TGI (SNB-19 CNS): > 100 µM
TGI (HOP-92 NSCLC): > 100 µM
TGI (COLO 205 colon): 34.3 µM
TGI (A549 NSCLC): > 100 µM
TGI (OVCAR-8 ovarian): > 100 µM
TGI (RPMI-8226 leukemia): 79.6 µM
TGI (T-47D breast): > 100 µM
TGI (SK-MEL-28 melanoma): 31.2 µM
TGI (HS 578T breast): 65.5 µM
TGI (K-562 leukemia): > 100 µM
TGI (SN12C renal): > 100 µM
TGI (BT-549 breast): 27.6 µM
TGI (NCI-H460 lung): 44 µM
TGI (OVCAR-3 ovarian): > 100 µM
TGI (TK-10 renal): > 100 µM
TGI (SK-MEL-2 melanoma): 34.8 µM
TGI (UACC-62 melanoma): 60.4 µM
TGI (A498 renal): > 100 µM
TGI (SR leukemia): > 100 µM
TGI (MDA-MB-231 breast): 88.6 µM
TGI (UACC-257 melanoma): > 100 µM
TGI (MALME-3M melanoma): 33.6 µM
TGI (LOX IMVI melanoma): 46.1 µM
TGI (NCI-H23 lung): > 100 µM
TGI (IGROV1 ovarian): > 100 µM
TGI (HT29 colon): > 100 µM
TGI (NCI/ADR-RES ovarian): > 100 µM
TGI (UO-31 renal): > 100 µM
TGI (OVCAR-5 ovarian): > 100 µM
TGI (OVCAR-4 ovarian): > 100 µM
TGI (DU-145 prostate): > 100 µM
TGI (KM12 colon): 30.7 µM
TGI (M14 melanoma): 99.2 µM
TGI (EKVX NSCLC): > 100 µM
TGI (HCC-2998 colon): 33.6 µM
TGI (CAKI-1 renal): > 100 µM
TGI (NCI-H522 lung): 28.2 µM
TGI (SW-620 colon): 33.6 µM
TGI (CCRF-CEM leukemia): 69.7 µM
TGI (MDA-MB-435): 40.6 µM
TGI (PC-3 prostate): > 100 µM
TGI (MDA-N): 83.7 µM
TGI (SF-268 CNS): > 100 µM
TGI (SK-MEL-5 melanoma): 34.8 µM
TGI (HCT-15 colon): > 100 µM
TGI (SF-295 CNS): > 100 µM
TGI (HOP-62 NSCLC): 73.5 µM
TGI (ACHN renal): > 100 µM
TGI (U251 CNS): > 100 µM
TGI (SK-OV-3 ovarian): > 100 µM
TGI (MCF7 breast): > 100 µM
TGI (SNB-75 CNS): 23.1 µM

CN(C)c1ccc(/C=C(\C#N)C(N)=C(C#N)C#N)cc1
TGI (HL-60(TB) leukemia): > 100 µM
TGI (SNB-19 CNS): > 100 µM
TGI (HOP-92 NSCLC): > 100 µM
TGI (COLO 205 colon): > 100 µM
TGI (A549 NSCLC): > 100 µM
TGI (OVCAR-8 ovarian): > 100 µM
TGI (T-47D breast): > 100 µM
TGI (SK-MEL-28 melanoma): > 100 µM
TGI (HS 578T breast): > 100 µM
TGI (K-562 leukemia): > 100 µM
TGI (SN12C renal): > 100 µM
TGI (BT-549 breast): > 100 µM
TGI (NCI-H460 lung): > 100 µM
TGI (OVCAR-3 ovarian): > 100 µM
TGI (TK-10 renal): > 100 µM
TGI (UACC-62 melanoma): > 100 µM
TGI (A498 renal): > 100 µM
TGI (SR leukemia): > 100 µM
TGI (MDA-MB-231 breast): > 100 µM
TGI (UACC-257 melanoma): > 100 µM
TGI (MALME-3M melanoma): > 100 µM
TGI (786-0 renal): > 100 µM
TGI (LOX IMVI melanoma): > 100 µM
TGI (NCI-H23 lung): > 100 µM
TGI (IGROV1 ovarian): > 100 µM
TGI (HT29 colon): > 100 µM
TGI (NCI/ADR-RES ovarian): > 100 µM
TGI (UO-31 renal): > 100 µM
TGI (OVCAR-5 ovarian): > 100 µM
TGI (OVCAR-4 ovarian): > 100 µM
TGI (DU-145 prostate): > 100 µM
TGI (HCT-116 colon): > 100 µM
TGI (KM12 colon): > 100 µM
TGI (M14 melanoma): > 100 µM
TGI (EKVX NSCLC): > 100 µM
TGI (HCC-2998 colon): > 100 µM
TGI (CAKI-1 renal): > 100 µM
TGI (NCI-H522 lung): > 100 µM
TGI (SW-620 colon): > 100 µM
TGI (CCRF-CEM leukemia): > 100 µM
TGI (MDA-MB-435): > 100 µM
TGI (SF-539 CNS): > 100 µM
TGI (PC-3 prostate): > 100 µM
TGI (MDA-N): > 100 µM
TGI (SF-268 CNS): > 100 µM
TGI (SK-MEL-5 melanoma): > 100 µM
TGI (HCT-15 colon): > 100 µM
TGI (RXF 393 renal): > 100 µM
TGI (SF-295 CNS): > 100 µM
TGI (NCI-H226 lung): > 100 µM
TGI (HOP-62 NSCLC): > 100 µM
TGI (ACHN renal): > 100 µM
TGI (U251 CNS): > 100 µM
TGI (SK-OV-3 ovarian): > 100 µM
TGI (MCF7 breast): > 100 µM
